Test results: patent US10577332B2, “Tetrazole derivatives” (Hoffmann-La Roche Inc., priority 2015, dated 2020)

What was measured:
[1] = biological target: T1, human EAAT3 (Homo sapiens, UniProt P43005); experiment: FLIPR Membrane Potential (FMP) assay; assay type: cell-based; settings: HEK-293 cells stably expressing human EAAT3; antagonist applied 15 min before L-glutamate at EC80; Kb by Cheng-Prusoff from IC50
T1 construct: expressed in transfected cells
T1 sequence (P43005 1-524): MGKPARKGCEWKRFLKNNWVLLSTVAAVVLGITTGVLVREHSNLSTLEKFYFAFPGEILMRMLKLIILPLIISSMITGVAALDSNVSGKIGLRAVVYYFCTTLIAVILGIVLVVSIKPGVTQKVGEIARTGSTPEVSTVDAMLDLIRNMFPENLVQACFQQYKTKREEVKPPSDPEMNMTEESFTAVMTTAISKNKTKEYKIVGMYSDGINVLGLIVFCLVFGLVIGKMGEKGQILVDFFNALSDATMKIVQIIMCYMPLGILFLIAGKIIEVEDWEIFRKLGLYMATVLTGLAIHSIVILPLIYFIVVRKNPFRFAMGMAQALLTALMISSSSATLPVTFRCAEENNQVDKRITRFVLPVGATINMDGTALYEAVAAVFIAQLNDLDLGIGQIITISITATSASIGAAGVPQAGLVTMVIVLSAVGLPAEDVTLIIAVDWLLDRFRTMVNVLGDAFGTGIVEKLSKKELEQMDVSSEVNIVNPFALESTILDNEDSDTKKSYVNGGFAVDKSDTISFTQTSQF
How it was run: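 HEK-293 cells stably expressing human EAAT3, loaded with membrane-potential dye 1 h at 37 °C in Krebs buffer pH 7.4. Antagonists added 15 min before L-glutamate at EC80; peak fluorescence minus basal read on FLIPR at room temperature. Kb derived from IC50 via Cheng-Prusoff.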

For `CC(C)(NC(=O)c1cc(-c2ccc(Cl)cc2)cc(-n2nnnc2C2CC2)c1)C1CC1` [Example 81, 3-(4-Chlorophenyl)-N-(2-cyclopropylpropan-2-yl)-5-(5-cyclopropyl-tetrazol-1-yl)-benzamide], the Kb [1] was 210 nM and the melting point was 95 °C.

Work on `CC(C)c1nnnn1-c1cc(C(=O)NC(C)(C)C2CC2)cc(-c2ccc(F)cc2)c1` [Example 82, N-(2-Cyclopropylpropan-2-yl)-3-(4-fluorophenyl)-5-(5-propan-2-yltetrazol-1-yl)-benzamide] yielded a Kb [1] of 160 nM and a melting point of 75 °C.

Molecule `Cc1nnnn1-c1cc(C(=O)NC(C)(C)C2CC2)cc(-c2ccc(Cl)cc2)c1` [Example 83, 3-(4-Chlorophenyl)-N-(2-cyclopropylpropan-2-yl)-5-(5-methyltetrazol-1-yl)-benzamide] has a Kb [1] of 180 nM and a melting point of 85 °C.

Molecule `Cc1nnnn1-c1cc(C(=O)NC(C)(C)CO)cc(-c2ccc(F)cc2)c1` [Example 84, 3-(4-Fluorophenyl)-N-(1-hydroxy-2-methylpropan-2-yl)-5-(5-methyltetrazol-1-yl)-benzamide] has a Kb [1] of 780 nM and a melting point of 85 °C.

`Cc1nnnn1-c1cc(C(=O)NC(C)(C)C2CC2)cc(-c2ccc(F)cc2)c1` [Example 85, N-(2-Cyclopropylpropan-2-yl)-3-(4-fluorophenyl)-5-(5-methyltetrazol-1-yl)-benzamide] showed a Kb [1] of 290 nM and a melting point of 78 °C.

`Cc1nnnn1-c1cc(C(=O)NC(C)(C)C(F)(F)F)cc(-c2ccc(F)cc2)c1` [Example 86, 3-(4-Fluorophenyl)-5-(5-methyltetrazol-1-yl)-N-(1,1,1-trifluoro-2-methylpropan-2-yl)-benzamide] showed a Kb [1] of 200 nM and a melting point of 86 °C.

In the case of `CC(C)(CO)NC(=O)c1cc(-c2ccc(Cl)cc2)cc(-n2nnnc2C(C)(C)C)c1` [Example 88, 3-(5-tert-Butyltetrazol-1-yl)-5-(4-chlorophenyl)-N-(1-hydroxy-2-methylpropan-2-yl)-benzamide], the Kb [1] is reported as 150 nM and the melting point is reported as 112 °C.

`CCC(C)(C)NC(=O)c1cc(-c2ccc(Cl)cc2)cc(-n2nnnc2C(C)(C)C)c1` [Example 90, 3-(5-tert-Butyltetrazol-1-yl)-5-(4-chlorophenyl)-N-(2-methylbutan-2-yl)-benzamide] gave a Kb [1] of 170 nM and a melting point of 119 °C.

Molecule `CC(C)(C)NC(=O)c1cc(-c2ccc(Cl)cc2)cc(-n2nnnc2C(C)(C)C)c1` [Example 91, N-tert-Butyl-3-(5-tert-butyltetrazol-1-yl)-5-(4-chlorophenyl)-benzamide] has a Kb [1] of 87 nM and a melting point of 230.5 °C.

Work on `CC(C)(C)c1nnnn1-c1cc(C(=O)NC(C)(C)C2CC2)cc(-c2ccc(Cl)cc2)c1` [Example 92, 3-(5-tert-Butyltetrazol-1-yl)-5-(4-chlorophenyl)-N-(2-cyclopropylpropan-2-yl)-benzamide] yielded a Kb [1] of 300 nM and a melting point of 101 °C.

`CC(C)(C)c1nnnn1-c1cc(C(=O)NC(C)(C)C(F)(F)F)cc(-c2ccc(Cl)cc2)c1` [Example 93, 3-(5-tert-Butyltetrazol-1-yl)-5-(4-chlorophenyl)-N-(1,1,1-trifluoro-2-methylpropan-2-yl)-benzamide] gave a Kb [1] of 260 nM and a melting point of 218.5 °C.

`CC(C)(CO)NC(=O)c1cc(-c2ccc(F)cc2)cc(-n2nnnc2C(C)(C)C)c1` [Example 94, 3-(5-tert-Butyltetrazol-1-yl)-5-(4-fluorophenyl)-N-(1-hydroxy-2-methylpropan-2-yl)-benzamide] gave a Kb [1] of 250 nM and a melting point of 212 °C.

Work on `CC(C)(C)c1nnnn1-c1cc(C(=O)NC(C)(C)C(F)(F)F)cc(-c2ccc(F)cc2)c1` [Example 96, 3-(5-tert-Butyltetrazol-1-yl)-5-(4-fluorophenyl)-N-(1,1,1-trifluoro-2-methylpropan-2-yl)-benzamide] yielded a Kb [1] of 260 nM and a melting point of 224.5 °C.

Molecule `CCC(C)(C)NC(=O)c1cc(-c2ccc(F)cc2)cc(-n2nnnc2C(C)(C)C)c1` [Example 97, 3-(5-tert-Butyltetrazol-1-yl)-5-(4-fluorophenyl)-N-(2-methylbutan-2-yl)-benzamide] has a Kb [1] of 120 nM and a melting point of 199 °C.

`CC(C)(C)NC(=O)c1cc(-c2ccc(F)cc2)cc(-n2nnnc2C(C)(C)C)c1` [Example 98, N-tert-Butyl-3-(5-tert-butyltetrazol-1-yl)-5-(4-fluorophenyl)-benzamide] gave a Kb [1] of 100 nM and a melting point of 223.5 °C.

For `CC(C)(C)c1nnnn1-c1cc(C(=O)NC(C)(C)C2CC2)cc(-c2ccc(F)cc2)c1` [Example 99, 3-(5-tert-Butyltetrazol-1-yl)-N-(2-cyclopropylpropan-2-yl)-5-(4-fluorophenyl)-benzamide], the Kb [1] was 200 nM and the melting point was 201 °C.

Work on `CC(C)(C#N)NC(=O)c1cc(-c2ccc(F)cc2)cc(-n2nnnc2C(C)(C)C)c1` [Example 100, 3-(5-tert-Butyltetrazol-1-yl)-N-(2-cyanopropan-2-yl)-5-(4-fluorophenyl)-benzamide] yielded a Kb [1] of 230 nM and a melting point of 115 °C.

In the case of `CC(C)c1nnnn1-c1cc(C(=O)NC(C)(C)C#N)cc(-c2ccc(Cl)cc2)c1` [Example 101, 3-(4-Chlorophenyl)-N-(2-cyanopropan-2-yl)-5-(5-propan-2-yltetrazol-1-yl)-benzamide], the Kb [1] is reported as 205 nM and the melting point is reported as 107 °C.

`Cc1ccc(-c2cc(C(=O)NC(C)(C)C)cc(-n3nnnc3C(C)(C)C)c2)cc1` [Example 102, N-tert-Butyl-3-(5-tert-butyltetrazol-1-yl)-5-(4-methylphenyl)-benzamide] gave a Kb [1] of 120 nM and a melting point of 222 °C.

In the case of `Cc1cc(-c2cc(C(=O)NC(C)(C)C)cc(-n3nnnc3C(C)(C)C)c2)ccc1F` [Example 103, N-tert-Butyl-3-(5-tert-butyltetrazol-1-yl)-5-(4-fluoro-3-methylphenyl)-benzamide], the Kb [1] is reported as 260 nM and the melting point is reported as 190.5 °C.

Work on `CC(C)(C)NC(=O)c1cc(-c2ccc(C(F)(F)F)cc2)cc(-n2nnnc2C(C)(C)C)c1` [Example 104, N-tert-Butyl-3-(5-tert-butyltetrazol-1-yl)-5-[4-(trifluoromethyl)-phenyl]-benzamide] yielded a Kb [1] of 190 nM and a melting point of 241 °C.

With `CC(C)(C)NC(=O)c1cc(-c2ccc(Cl)c(F)c2)cc(-n2nnnc2C(C)(C)C)c1` [Example 105, N-tert-Butyl-3-(5-tert-butyltetrazol-1-yl)-5-(4-chloro-3-fluorophenyl)-benzamide] the Kb [1] was 290 nM and the melting point was 240.5 °C.

With `CC(C)(C)NC(=O)c1cc(-c2ccc(F)c(F)c2)cc(-n2nnnc2C(C)(C)C)c1` [Example 106, N-tert-Butyl-3-(5-tert-butyltetrazol-1-yl)-5-(3,4-difluorophenyl)-benzamide] the Kb [1] was 260 nM and the melting point was 225.5 °C.

Molecule `CC(C)(C)NC(=O)c1cc(-c2ccc(C3CC3)cc2)cc(-n2nnnc2C(C)(C)C)c1` [Example 107, N-tert-Butyl-3-(5-tert-butyltetrazol-1-yl)-5-(4-cyclopropylphenyl)-benzamide] has a Kb [1] of 280 nM and a melting point of 115 °C.

`Cc1ccc(-c2cc(C(=O)NC(C)(C)C)cc(-n3nnnc3C(C)(C)C)c2)cc1F` [Example 108, N-tert-Butyl-3-(5-tert-butyltetrazol-1-yl)-5-(3-fluoro-4-methylphenyl)-benzamide] showed a Kb [1] of 420 nM and a melting point of 227.5 °C.
